From ChEMBL document CHEMBL4725334, “Discovery of novel integrase-LEDGF/p75 allosteric inhibitors based on a benzene scaffold” (Bioorg Med Chem, 2020) come the findings set out here.

Data set [1] in a line: Binding affinity to LEDGF/p75 binding pocket of integrase in HIV-1 NL432 infected in human MT4 cells assessed as allosteric inhibition of IN-LEDGF/p75 interaction by measuring inhibition of virus-induced cytopathicity measured after 4 days by MTT assay. In kind it is cell-based. To be noted: Human immunodeficiency virus 1, NL432, MT4, 96 h.
The nature of data set [2]: Cytotoxicity against human MT4 cells assessed as reduction in cell viability measured after 4 days by MTT assay. In kind it is cell-based. To be noted: time 4 day. For orientation: Formazan colour is commonly taken as a measure of viable cells.
A short description of data set [3]: Metabolic stability in rat liver microsomes assessed as parent compound remaining at 0.5 uM incubated for 30 mins by LC-MS/MS analysi. Conditions: read-out: Stabilty. Type of data set: ADME, Microsome. A general note: Liver microsomes are a subcellular fraction often used to study metabolism.
A short description of data set [4]: Metabolic stability in human liver microsomes assessed as parent compound remaining at 0.5 uM incubated for 30 mins by LC-MS/MS analysis. To be noted: read-out: Stabilty. In kind it is ADME, Microsome.
Data set [5] is described as follows: Half-life in Sprague-Dawley rat at 0.5 mg/kg, iv and 1 mg/kg, po administered as cassette dosing measured for 24 hrs by LC-MS/MS analysis. Conditions: in vivo. Type of data set: ADME, organism-based.
Data set [6] in a line: Oral bioavailability in Sprague-Dawley rat 1 mg/kg administered as cassette dosing measured for 24 hrs by LC-MS/MS analysis. Type of data set: ADME, organism-based. Conditions: in vivo.
Data set [7] is described as follows: Total clearance in Sprague-Dawley rat at 0.5 mg/kg, iv and 1 mg/kg, po administered as cassette dosing measured for 24 hrs by LC-MS/MS analysis. In kind it is ADME, organism-based. To be noted: in vivo.
Data set [8] in a line: AUC in Sprague-Dawley rat at 0.5 mg/kg, iv measured for 24 hrs by LC-MS/MS analysis. Conditions: in vivo. In kind it is ADME, organism-based. On the set-up: dose 0.5 mg/kg, time 24 hrs.

As usually defined, the EC50 is the concentration giving half of the maximal effect. What is called CC50 is the concentration at which the toxic effect on the cells reaches its halfway point. In the case of `Cc1ccc(-c2c(C)c(-c3ccc(C)c(C)c3)c(C(OC(C)(C)C)C(=O)O)c(C)c2NC(=O)c2ccccc2)cc1C` (centres undefined), the EC50 in data set [1] is 51 nM. The 50% cytotoxic concentration (CC50) at 96 h in data set [2] was 9100 nM.

With `CC(=O)Nc1c(C)c(C(OC(C)(C)C)C(=O)O)c(-c2ccc(C)c(C)c2)c(C)c1-c1ccc(C)c(C)c1` (centres undefined), the EC50 in data set [1] came to 19 nM. Moreover, the 50% cytotoxic concentration (CC50) at 96 h in data set [2] was 19000 nM.

`CNC(=O)Nc1c(C)c(C(OC(C)(C)C)C(=O)O)c(-c2ccc(C)c(C)c2)c(C)c1-c1ccc(C)c(C)c1` (centres undefined): the EC50 in data set [1] was 77 nM. Also, the CC50 at 96 h in data set [2] turned out to be 20000 nM.

Consider `Cc1ccc(-c2c(C)c(-c3ccc(C)c(C)c3)c(C(OC(C)(C)C)C(=O)O)c(C)c2NC(=O)Nc2ccccc2)cc1C` (centres undefined), for which the EC50 in data set [1] turned out to be 29 nM. Moreover, in data set [2], the CC50 at 96 h is 8000 nM.

In the case of `Cc1ccc(-c2c(C)c(-c3ccc(C)c(C)c3)c(C(OC(C)(C)C)C(=O)O)c(C)c2NS(=O)(=O)c2ccccc2)cc1C` (centres undefined), the EC50 in data set [1] is 33 nM. The CC50 at 96 h in data set [2] turned out to be 11000 nM.

For the compound `Cc1ccc(-c2c(C)c(-c3ccc4c(c3)CCO4)c(C(OC(C)(C)C)C(=O)O)c(C)c2NS(C)(=O)=O)cc1C` (centres undefined), the EC50 in data set [1] is 35 nM. In addition, in data set [2], the cytotoxic concentration (CC50) at 96 h was determined as 38000 nM.

On to `Cc1ccc(-c2c(C)c(-c3ccc(C)c(C)c3)c(C(OC(C)(C)C)C(=O)O)c(C)c2N)cc1C` (centres undefined), for which, in data set [1], the EC50 stood at 27 nM. Moreover, in data set [2], the CC50 at 96 h worked out at 12000 nM.

`Cc1ccc(-c2c(C)c(-c3ccccc3)c(C(OC(C)(C)C)C(=O)O)c(C)c2NS(C)(=O)=O)cc1C` (centres undefined): the EC50 in data set [1] was determined as 34 nM. Moreover, the CC50 at 96 h in data set [2] was more than 50000 nM.

With `CNc1c(C)c(C(OC(C)(C)C)C(=O)O)c(-c2ccc(C)c(C)c2)c(C)c1-c1ccc(C)c(C)c1` (centres undefined), in data set [1], the EC50 turned out to be 31 nM. Besides, in data set [2], the half-maximal cytotoxic concentration (CC50) at 96 h stood at 8800 nM.

Regarding `Cc1ccc(-c2c(C)c(-c3ccc4c(c3)NCCO4)c(C(OC(C)(C)C)C(=O)O)c(C)c2NS(C)(=O)=O)cc1C` (centres undefined), the EC50 in data set [1] was found to be 330 nM. The 50% cytotoxic concentration (CC50) at 96 h in data set [2] was found to be 42000 nM.

Usually half-life stands for how long it takes for the measured level to halve. A higher half-life goes with slow decline. One may read the bioavailability as dose-corrected exposure relative to a reference, in per cent. As usually defined, the AUC is concentration integrated over time. As to `Cc1ccc(-c2c(C)c(-c3ccc4c(c3C)CCCO4)c(C(OC(C)(C)C)C(=O)O)c(C)c2NS(C)(=O)=O)cc1C` (centres undefined), the EC50 in data set [1] is 3.9 nM. In addition, the remaining at 0.5 h, 0.5 µM in data set [3] was determined as 61%; in data set [4], 59%. The same compound had a half-life in data set [5] of 3.1 h. The bioavailability in data set [6] was 36%. For the same compound, the CC50 at 96 h in data set [2] was determined as 24000 nM. In addition, in data set [7], the clearance was 6.99 mL/min/kg. Moreover, in data set [8], the AUC at 24 h came out at 1190 ng·h/mL.

Regarding `Cc1ccc(-c2c(C)c(-c3ccc(Cl)cc3)c(C(OC(C)(C)C)C(=O)O)c(C)c2NS(C)(=O)=O)cc1C` (centres undefined), the 50% effective concentration (EC50) in data set [1] amounted to 11 nM. Further, in data set [2], the CC50 at 96 h is 26000 nM.

Turning to `Cc1ccc(-c2c(C)c(-c3ccc4c(c3)CCCO4)c(C(OC(C)(C)C)C(=O)O)c(C)c2NS(C)(=O)=O)cc1C` (centres undefined), the concentration giving a half-maximal response (EC50) in data set [1] turned out to be 22 nM. In addition, the CC50 at 96 h in data set [2] was 28000 nM.

Take `CCNC(=O)Nc1c(C)c(C(OC(C)(C)C)C(=O)O)c(-c2ccc(C)c(C)c2)c(C)c1-c1ccc(C)c(C)c1` (centres undefined): the half-maximal effective concentration (EC50) in data set [1] stood at 37 nM. In addition, the CC50 at 96 h in data set [2] stood at 15000 nM.

In the case of `Cc1ccc(-c2c(C)c(-c3ccc(Cl)c(F)c3)c(C(OC(C)(C)C)C(=O)O)c(C)c2NS(C)(=O)=O)cc1C` (centres undefined), in data set [1], the half-maximal effective concentration (EC50) was 26 nM. In data set [2], the CC50 at 96 h worked out at 22000 nM.

In the case of `Cc1ccc(-c2c(C)c(-c3ccc(C)c(C)c3)c(C(OC(C)(C)C)C(=O)O)c(C)c2NS(=O)(=O)C2CC2)cc1C` (centres undefined), the 50% effective concentration (EC50) in data set [1] came to 29 nM. In addition, the CC50 at 96 h in data set [2] was 11000 nM.

Consider `Cc1ccc(-c2c(C)c(-c3ccc(C)c(C)c3)c(C(OC(C)(C)C)C(=O)O)c(C)c2NS(C)(=O)=O)cc1C` (centres undefined), for which the EC50 in data set [1] is 11 nM. The CC50 at 96 h in data set [2] was found to be 15000 nM.

Take `CCC(=O)Nc1c(C)c(C(OC(C)(C)C)C(=O)O)c(-c2ccc(C)c(C)c2)c(C)c1-c1ccc(C)c(C)c1` (centres undefined): the concentration for a half-maximal effect (EC50) in data set [1] is 19 nM. Also, the CC50 at 96 h in data set [2] worked out at 15000 nM.

For `Cc1ccc(-c2c(C)c(-c3ccc(C)c(C)c3)c(C(OC(C)(C)C)C(=O)O)c(C)c2NCc2ccccc2)cc1C` (centres undefined), in data set [1], the EC50 was found to be 480 nM. Also, the CC50 at 96 h in data set [2] is 4000 nM.

Regarding `Cc1ccc(-c2c(C)c(-c3ccc4c(c3)N(C)CCO4)c(C(OC(C)(C)C)C(=O)O)c(C)c2NS(C)(=O)=O)cc1C` (centres undefined), the concentration for a half-maximal effect (EC50) in data set [1] stood at 31 nM. Also, the CC50 at 96 h in data set [2] came out at 31000 nM.

Regarding `Cc1nc2ccccc2c(-c2ccc3c4c(ccnc24)CCO3)c1[C@H](OC(C)(C)C)C(=O)O` [BI-224436], in data set [1], the EC50 is 56 nM. Besides, the values for the remaining at 0.5 h, 0.5 µM in data set [3] and in data set [4] were 100% and 98%, respectively. For the same compound, the half-life in data set [5] was 4.2 h. This compound displayed a bioavailability in data set [6] of 64%. The 50% cytotoxic concentration (CC50) at 96 h in data set [2] was more than 50000 nM. Also, the clearance in data set [7] is 1.09 mL/min/kg. In addition, the area under the curve (AUC) at 24 h in data set [8] turned out to be 7680 ng·h/mL.
